# Measured values published in the supplement of paper PMC10307832.
# Columns and labels:
# Experiment in all cases: relative viability (nuclei count vs DMSO), 5 days (fraction); higher = more cells survive
# EMC-BAC-2 = system: EMC-BAC-2
# Summary of the method: (§1)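 The day after seeding in 1536-well plates, lung cancer cell lines were treated by pin tool with a single drug, or with a fixed anchor-drug dose together with five library-drug doses (not always all listed) in √10 steps. After 5 days, a combined fix-and-stain solution (final 0.05% Triton X-100, 1% formaldehyde, 1 ug/ml Hoechst) was added. Nuclei counted on 4× images gave relative viability as treated counts over vehicle counts, reported as the median of duplicate plates.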
# NCI-H1623 = system: NCI-H1623
# Summary of the method: as §1
# NCI-H1395 = system: NCI-H1395
# Summary of the method: as §1
# LCLC-97TM1 = system: LCLC-97TM1
# Summary of the method: as §1
# HCC-366 = system: HCC-366
# Summary of the method: as §1
# HCC-78 = system: HCC-78
# Summary of the method: as §1
# IA-LM = system: IA-LM
# Summary of the method: as §1
# Calu-6 = system: Calu-6
# Summary of the method: as §1
# A549 = system: A549
# Summary of the method: as §1
# NCI-H1703 = system: NCI-H1703
# Summary of the method: as §1
# EBC-1 = system: EBC-1
# Summary of the method: as §1
# NCI-H1648 = system: NCI-H1648
# Summary of the method: as §1
# NCI-H1299 = system: NCI-H1299
# Summary of the method: as §1
smiles,measurement,setting,value
CN1CCN(CCOc2cc(OC3CCOCC3)c3c(Nc4c(Cl)ccc5c4OCO5)ncnc3c2)CC1 [Saracatinib] + CCNC(=O)c1noc(-c2cc(C(C)C)c(O)cc2O)c1-c1ccc(CN2CCOCC2)cc1 [Luminespib] (partner 0.01 µM),relative viability,EMC-BAC-2; first compound 0.02 µM,1.21
same,relative viability,EMC-BAC-2; first compound 0.2 µM,0.894
same,relative viability,EMC-BAC-2; first compound 0.6325 µM,1.16
same,relative viability,EMC-BAC-2; first compound 2 µM,0.978
same,relative viability,NCI-H1623; first compound 0.02 µM,0.527
same,relative viability,NCI-H1623; first compound 0.2 µM,0.383
same,relative viability,NCI-H1623; first compound 0.6325 µM,0.522
same,relative viability,NCI-H1623; first compound 2 µM,0.433
same,relative viability,NCI-H1395; first compound 0.02 µM,0.621
same,relative viability,NCI-H1395; first compound 0.2 µM,0.634
same,relative viability,NCI-H1395; first compound 0.6325 µM,0.79
same,relative viability,NCI-H1395; first compound 2 µM,0.62
same,relative viability,LCLC-97TM1; first compound 0.02 µM,0.8
same,relative viability,LCLC-97TM1; first compound 0.2 µM,0.47
same,relative viability,LCLC-97TM1; first compound 0.6325 µM,0.725
same,relative viability,LCLC-97TM1; first compound 2 µM,0.444
CN1CCN(CCOc2cc(OC3CCOCC3)c3c(Nc4c(Cl)ccc5c4OCO5)ncnc3c2)CC1 [Saracatinib] + Cc1nc(Nc2ncc(C(=O)Nc3c(C)cccc3Cl)s2)cc(N2CCN(CCO)CC2)n1 [Dasatinib] (partner 0.075 µM),relative viability,EMC-BAC-2; first compound 0.02 µM,0.321
same,relative viability,EMC-BAC-2; first compound 0.2 µM,0.286
same,relative viability,EMC-BAC-2; first compound 0.6325 µM,0.324
same,relative viability,EMC-BAC-2; first compound 2 µM,0.294
same,relative viability,NCI-H1623; first compound 0.02 µM,0.562
same,relative viability,NCI-H1623; first compound 0.2 µM,0.416
same,relative viability,NCI-H1623; first compound 0.6325 µM,0.468
same,relative viability,NCI-H1623; first compound 2 µM,0.406
same,relative viability,NCI-H1395; first compound 0.02 µM,0.394
same,relative viability,NCI-H1395; first compound 0.2 µM,0.418
same,relative viability,NCI-H1395; first compound 0.6325 µM,0.411
same,relative viability,NCI-H1395; first compound 2 µM,0.402
same,relative viability,HCC-366; first compound 0.02 µM,0.636
same,relative viability,HCC-366; first compound 0.6325 µM,0.678
same,relative viability,HCC-366; first compound 2 µM,0.607
same,relative viability,HCC-78; first compound 0.02 µM,0.477
same,relative viability,HCC-78; first compound 0.6325 µM,0.421
same,relative viability,HCC-78; first compound 2 µM,0.352
same,relative viability,LCLC-97TM1; first compound 0.02 µM,0.636
same,relative viability,LCLC-97TM1; first compound 0.2 µM,0.519
same,relative viability,LCLC-97TM1; first compound 0.6325 µM,0.723
same,relative viability,LCLC-97TM1; first compound 2 µM,0.33
CN1CCN(CCOc2cc(OC3CCOCC3)c3c(Nc4c(Cl)ccc5c4OCO5)ncnc3c2)CC1 [Saracatinib] + O=C(c1cc(Cc2n[nH]c(=O)c3ccccc23)ccc1F)N1CCN(C(=O)C2CC2)CC1 [Olaparib] (partner 8 µM),relative viability,EMC-BAC-2; first compound 0.02 µM,0.489
same,relative viability,EMC-BAC-2; first compound 0.2 µM,0.418
same,relative viability,EMC-BAC-2; first compound 0.6325 µM,0.562
same,relative viability,EMC-BAC-2; first compound 2 µM,0.474
same,relative viability,NCI-H1395; first compound 0.02 µM,0.497
same,relative viability,NCI-H1395; first compound 0.2 µM,0.488
same,relative viability,NCI-H1395; first compound 0.6325 µM,0.409
same,relative viability,NCI-H1395; first compound 2 µM,0.436
same,relative viability,IA-LM; first compound 0.02 µM,0.856
same,relative viability,IA-LM; first compound 0.2 µM,0.884
same,relative viability,IA-LM; first compound 0.6325 µM,1.06
same,relative viability,IA-LM; first compound 2 µM,0.76
same,relative viability,Calu-6; first compound 0.02 µM,0.53
same,relative viability,Calu-6; first compound 0.2 µM,0.51
same,relative viability,Calu-6; first compound 0.6325 µM,0.529
same,relative viability,Calu-6; first compound 2 µM,0.449
same,relative viability,HCC-366; first compound 0.02 µM,0.343
same,relative viability,HCC-366; first compound 0.2 µM,0.0912
same,relative viability,HCC-366; first compound 0.6325 µM,0.264
same,relative viability,HCC-366; first compound 2 µM,0.199
same,relative viability,A549; first compound 0.02 µM,0.338
same,relative viability,A549; first compound 0.2 µM,0.174
same,relative viability,A549; first compound 0.6325 µM,0.341
same,relative viability,A549; first compound 2 µM,0.305
same,relative viability,NCI-H1703; first compound 0.02 µM,0.425
same,relative viability,NCI-H1703; first compound 0.2 µM,0.393
same,relative viability,NCI-H1703; first compound 0.6325 µM,0.172
same,relative viability,NCI-H1703; first compound 2 µM,0.158
same,relative viability,HCC-78; first compound 0.02 µM,0.891
same,relative viability,HCC-78; first compound 0.6325 µM,0.99
same,relative viability,HCC-78; first compound 2 µM,0.673
same,relative viability,EBC-1; first compound 0.02 µM,0.701
same,relative viability,EBC-1; first compound 0.2 µM,0.709
same,relative viability,EBC-1; first compound 0.6325 µM,0.729
same,relative viability,EBC-1; first compound 2 µM,0.734
same,relative viability,LCLC-97TM1; first compound 0.02 µM,0.494
same,relative viability,LCLC-97TM1; first compound 0.2 µM,0.291
same,relative viability,LCLC-97TM1; first compound 0.6325 µM,0.567
same,relative viability,LCLC-97TM1; first compound 2 µM,0.32
same,relative viability,NCI-H1648; first compound 0.02 µM,0.882
same,relative viability,NCI-H1648; first compound 0.2 µM,0.678
same,relative viability,NCI-H1648; first compound 0.6325 µM,1.75
same,relative viability,NCI-H1648; first compound 2 µM,0.417
same,relative viability,NCI-H1299; first compound 0.02 µM,0.923
same,relative viability,NCI-H1299; first compound 0.2 µM,0.952
same,relative viability,NCI-H1299; first compound 0.6325 µM,1.12
same,relative viability,NCI-H1299; first compound 2 µM,0.92
